Laboratory results from the supplement of paper PMC10307832.

Assays:
Assay in all cases: relative viability (nuclei count vs DMSO), 5 days (fraction); higher = more cells survive
Irinotecan + Lapatinib = compound: CCc1c2c(nc3ccc(OC(=O)N4CCC(N5CCCCC5)CC4)cc13)-c1cc3c(c(=O)n1C2)COC(=O)[C@]3(O)CC [Irinotecan] + CS(=O)(=O)CCNCc1ccc(-c2ccc3ncnc(Nc4ccc(OCc5cccc(F)c5)c(Cl)c4)c3c2)o1 [Lapatinib] (partner 2 µM)
Method in brief: (§1)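 Values are medians from duplicate plates. Each reflects relative viability, defined as the nuclei count of treated wells over that of vehicle wells. Lung cancer cell lines in 1536-well plates were pin-tool dosed one day after seeding with one drug alone or with a fixed anchor-drug dose plus five library-drug doses (not always all listed) in √10 steps, then fixed, stained and imaged at 4× after 5 days.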

RU-SKI 43 + Lapatinib = compound: CC[C@@H](C)CNCC(=O)N1CCC2=C([C@@H]1COC3=CC=CC(=C3)C)C=CS2 [RU-SKI 43] + CS(=O)(=O)CCNCc1ccc(-c2ccc3ncnc(Nc4ccc(OCc5cccc(F)c5)c(Cl)c4)c3c2)o1 [Lapatinib] (partner 2 µM)
Method in brief: as §1

Irinotecan + Dasatinib = compound: CCc1c2c(nc3ccc(OC(=O)N4CCC(N5CCCCC5)CC4)cc13)-c1cc3c(c(=O)n1C2)COC(=O)[C@]3(O)CC [Irinotecan] + Cc1nc(Nc2ncc(C(=O)Nc3c(C)cccc3Cl)s2)cc(N2CCN(CCO)CC2)n1 [Dasatinib] (partner 0.075 µM)
Method in brief: as §1

Irinotecan + Trametinib = compound: CCc1c2c(nc3ccc(OC(=O)N4CCC(N5CCCCC5)CC4)cc13)-c1cc3c(c(=O)n1C2)COC(=O)[C@]3(O)CC [Irinotecan] + CC(=O)Nc1cccc(-n2c(=O)n(C3CC3)c(=O)c3c(Nc4ccc(I)cc4F)n(C)c(=O)c(C)c32)c1 [Trametinib] (partner 0.02 µM)
Method in brief: as §1

| Cell Line | relative viability (Irinotecan + Lapatinib; first compound 0.6325 µM) | relative viability (Irinotecan + Lapatinib; first compound 2 µM) | relative viability (Irinotecan + Lapatinib; first compound 6.325 µM) | relative viability (Irinotecan + Lapatinib; first compound 20 µM) | relative viability (RU-SKI 43 + Lapatinib; first compound 0.1 µM) | relative viability (RU-SKI 43 + Lapatinib; first compound 0.3162 µM) | relative viability (RU-SKI 43 + Lapatinib; first compound 1 µM) | relative viability (RU-SKI 43 + Lapatinib; first compound 3.162 µM) | relative viability (RU-SKI 43 + Lapatinib; first compound 10 µM) | relative viability (Irinotecan + Dasatinib; first compound 0.6325 µM) | relative viability (Irinotecan + Dasatinib; first compound 2 µM) | relative viability (Irinotecan + Dasatinib; first compound 6.325 µM) | relative viability (Irinotecan + Dasatinib; first compound 20 µM) | relative viability (Irinotecan + Trametinib; first compound 0.6325 µM) | relative viability (Irinotecan + Trametinib; first compound 2 µM) | relative viability (Irinotecan + Trametinib; first compound 6.325 µM) | relative viability (Irinotecan + Trametinib; first compound 20 µM) |
| --- | --- | --- | --- | --- | --- | --- | --- | --- | --- | --- | --- | --- | --- | --- | --- | --- | --- |
| NCI-H3122 | 0.994 | 0.529 | 0.24 | 0.274 | 1.06 | 1.03 | 1.03 | 1.09 | 0.979 | 0.142 | 0.619 | 0.149 | 0.117 | 0.192 | 0.146 | 0.111 | 0.108 |
| SW 1573 | 0.965 | 1.11 | 0.326 | 0.195 | 1.27 | 1.11 | 1.07 | 1.11 | 1.16 | 0.317 | 0.544 | 0.161 | 0.108 |  | 0.432 | 0.138 | 0.0925 |
| NCI-H2342 |  |  |  |  |  |  |  |  |  | 0.304 | 0.278 | 0.299 | 0.377 | 0.872 | 0.89 | 0.786 | 0.494 |
| HCC-15 | 0.463 | 0.336 | 0.17 | 0.155 | 0.906 | 1.16 | 1.04 | 0.787 | 0.717 |  | 0.523 | 0.196 | 0.123 | 0.325 | 0.233 | 0.179 | 0.174 |
| NCI-H1666 | 0.466 | 0.556 | 0.35 | 0.223 | 0.58 | 0.721 | 0.695 | 0.615 | 0.52 | 0.864 | 0.657 | 0.486 | 0.348 | 0.769 | 0.569 | 0.638 | 0.432 |
| NCI-H460 | 0.287 | 0.475 | 0.0664 | 0.0537 | 0.993 | 1.33 | 1.55 | 1.25 | 1.01 | 0.402 | 0.301 | 0.0681 | 0.0459 | 0.086 | 0.159 | 0.089 | 0.0313 |
| IA-LM | 0.426 | 0.26 | 0.134 | 0.0941 | 0.717 | 0.956 | 1.02 | 0.79 | 0.731 |  |  |  |  |  |  |  |  |
| SW 900 |  |  |  |  |  |  |  |  |  | 0.688 | 0.707 | 0.509 | 0.488 |  | 0.522 | 0.275 | 0.284 |
| NCI-H441 |  |  |  |  |  |  |  |  |  | 0.461 | 0.577 | 0.286 | 0.22 | 0.405 | 0.426 | 0.141 | 0.198 |
| NCI-H1703 | 0.953 | 1.32 | 0.39 | 0.158 |  | 1.86 | 1.11 | 1.16 | 0.637 |  |  |  |  |  |  |  |  |
| NCI-H1299 | 0.721 | 0.693 | 0.399 | 0.203 | 0.965 | 1.03 | 1.05 | 0.941 | 0.95 |  |  |  |  |  |  |  |  |
